Measurements as given in PMC3253046 (Chinese Medicine, 2011).
Like-named read-outs stand apart in the source and are kept apart here.

Legend:
[1] = Stability of the selected isoflavones in transport buffer (PBS+); assay type: physicochemical; conditions: three hours of incubation
Procedure: The transport buffer (PBS^+) used in the Caco-2 monolayer model was prepared as previously described. […]. For stability tests at 37°C, samples were taken at 0, 15, 40, 75, 120 and 180 minutes. At each time interval, 300 μl of isoflavone solution was taken and then acidified with 50 μl of 0.425% phosphoric acid. All experiments were conducted in triplicates. The amount of selected isoflavones remained in PBS^+ was determined with high-performance liquid chromatography (HPLC).

[2] = Bidirectional transport in the Caco-2 monolayer model; assay type: in vitro ADME, human; conditions: human
Procedure: (§1) The Caco-2 cells were cultured and seeded in the Transwell® inserts (24 mm, 0.4 μm pore size, 4.71 cm^2, polycarbonate filter) according to our previous study. Cells used for the current study were from passage 35-40. The transport experiments were carried out at 23-25 days after seeding. Upon removal of culture medium, the Transwells® were pre-equilibrated with PBS^+ at 37°C for 15 minutes. […] All Caco-2 transport studies were performed at least in triplicates. Procedure was similar to the A→B transport studies except for the donor side and the receiver side was reversed. […] Samples were taken from the receiver (apical) side at the same time points and at the end of the experiment from the donor (basolateral) side as mentioned for the A→B studies. The studies were also performed at least in triplicates. Samples obtained in the Caco-2 transport studies were acidified with 0.425% phosphoric acid at a sample to acid ratio of 150:25 (v/v). […] Waters 2695 separation modules and Waters 996 photodiode array detector were used in the HPLC analyses of the Caco-2 samples. A reversed-phase column (100 × 4.6 mm 5μ Apex ODS Symm, Jones Chromatography, USA) equipped with a guard column (7.5 × 4.6 mm 5μ Spherisorb® ODS-2 C18, Waters, USA]) was used for the analyses of all three isoflavones. In order to shorten sample-running time, three separated HPLC methods were used for each isoflavone. The apparent permeability coefficient, Papp (cm/s), was calculated as follows. Papp=dC∕dT×V/(A×Co) where dC/dT is the initial slope of the plot of cumulative isoflavone concentrations versus time; V is the volume of receiver chamber (ml); A is the apparent surface area of the monolayer; Co is the initial concentration in donor site (μmol/ml). In addition to Papp, the percentage of recovery was calculated for each transport study to determine the extent of absence of isoflavone, which may be due to cell uptake or metabolism of the selected isoflavones after passing through the Caco-2 cells. It was calculated as follows. Recovery%=Final amount (in μmole) of isoflavone in donor and receptor side∕Initial amount (in μmole) of isoflavone in donor side

[3] = system: Caco-2 monolayer; experiment: as above; assay type: in vitro ADME, human; conditions: for time at which detectable in receiver chambers: after being loaded, both directions
Procedure: as §1

[4] = system: MRP; experiment: Basolateral-to-apical transport in Caco-2 monolayer in the presence of MK571 (MRP inhibitor); assay type: in vitro ADME, human; conditions: for lowering of B→A cumulative concentration versus without MK571: MK571 50 μM
Procedure: Procedure was similar to the A→B transport studies except for the donor side and the receiver side was reversed. Loading solution (2.6 ml) was added into the basolateral side and 1.5 ml of the blank PBS^+ was added to the apical side. Samples were taken from the receiver (apical) side at the same time points and at the end of the experiment from the donor (basolateral) side as mentioned for the A→B studies. The studies were also performed at least in triplicates.
The study was performed only for isoflavones that had shown a favorable B→A transport in the bi-directional transport studies. […] To investigate the influence of MRP on the efflux transport of the selected isoflavones, we preloaded 1.5 ml of MK571 (50 μM) at apical side and 2.6 ml of MK571 (50 μM) at the basolateral side respectively. The B→A transport experiments of the selected isoflavones in the presence of MK571 (50 μM) in the both apical and basolateral chambers were then performed following the method described above. The studies were performed in triplicates.

[5] = Hydrolysis on incubation with rat intestinal microvilli preparations; assay type: in vitro ADME; conditions: 50 μM, 37°C, two hours, protein 0.43 mg/ml
Procedure: Male Sprague-Dawley rats, supplied by and bred at the Laboratory Animal Service Center at The Chinese University of Hong Kong, were housed in an air-conditioned room under a 12/12-hour light/dark cycle. The experiment was conducted after being approved by the Animal Ethics Committee of The Chinese University of Hong Kong.
Samples from the in vitro incubation studies were centrifuged at 16,000 × g (Eppendorf, Germany) for five minutes; 50 μl of the supernatant of the samples were obtained and injected into the HPLC for analysis. In order to monitor daidzin, puerarin and daidzein in a single run for the samples from the hydrolysis study, we modified the above HPLC method for simultaneous detection of the three compounds. The analytes were separated with an HPLC column (BDS reversed phase column, 25 cm × 4.6 mm id; 5 μm particle size, Thermo Hypersil, UK) and eluted by the linear gradient elution at a flow rate of 1 ml/min. The gradient started with 95% of water with 0.01% aqueous acetic acid (A) and 5% of ACN containing 0.01% acetic acid (B), changed linearly to 83% A and 17% B in 30 minutes; 70% A and 30% B in 30-40 minutes; 50% A and 50% B in 40-45 minutes; and then back to the initial composition in 15 minutes followed by ten minutes after equilibrium.

[6] = Partition coefficients (octanol/aqueous); assay type: physicochemical; conditions: read-out: partition coefficient D (LogD, octanol/aqueous)
Procedure: The aqueous solution (10 ml) containing individual isoflavones was mixed with octanol (3 ml). The mixtures were equilibrated in tube rotator for 24 hours followed by sampling from the aqueous layers and determining concentrations of the isoflavones by HPLC. The test was performed in triplicates for each isoflavone. The partition coefficients (D) at both pH7.4 and pH 6.8 were obtained through the following equation:
LogD=log(isoflavoneoctanolphase∕isoflavoneaqueousphase)

[7] = both directional transport studies
[8] = Caco-2, pH 6.8, Caco-2, pH6.8, mean ± SD (n = 3), read-out: Recovery Apical to basolateral
[9] = Caco-2, pH 6.8, Caco-2, pH6.8, mean ± SD (n = 3), read-out: Recovery Basolateral to apical

Row | SMILES | isoflavone remained in PBS+ ([1]; pH6.8, 37°C) [%] | isoflavone remained in PBS+ ([1]; pH7.4, 37°C) [%] | recovery ([2]; Caco-2, pH 6.8, Recovery Apical to basolateral) [%] | recovery ([2]; Caco-2, pH 6.8, Recovery Basolateral to apical) [%] | time at which detectable in receiver chambers [3] | percentage of recoveries [3, 7] | time from which detectable in the receiver chamber ([4]; B→A, in the presence of MK571 50 μM) [min] | lowering of B→A cumulative concentration versus without MK571 ([4]; at 180 minutes) [%] | cumulative concentration in the receiver chamber (B→A) ([4]; at 180 minutes, MK571 50 μM in both chambers) [µM] | lowering of B→A cumulative concentration versus without MK571 ([4]; at 180 minutes, listed as daidzin) | recovery at 180 min ([4]; human, Caco-2, B→A transport in the absence and presence of MK571, read-out: percentages of recovery) [%] | hydrolysis by rat intestinal microvilli preparations [5] | logD at 24 h ([6]; pH 6.8, 24 hours equilibration) | logD at 24 h ([6]; pH 7.4, pH7.4, 24 hours equilibration) | recovery [2, 8] [%] | recovery [2, 9] [%] | Papp B→A ([2]; pH 6.8, Caco-2, pH6.8, mean ± SD (n = 3), read-out: Papp Basolateral to apical) [×10⁻⁶ cm/s] | cumulative concentration in the receiver side ([3]; at 180 minutes after apical loading) [µM] | cumulative concentration in the receiver side ([3]; at 180 minutes after basal loading) [µM] | fraction permeable through the Caco-2 monolayer [3, 7]
1 | O=c1c(-c2ccc(O)cc2)coc2cc(O)ccc12 [Daidzein, daidzein] | 95.50 ± 0.84 | 97.73 ± 3.43 | 83.1 ± 5.74 | 84 ± 14.1 | 15 min | about 83% | – | – | – | – | – | – | – | – | – | – | – | – | – | –
2 | O=c1c(-c2ccc(O)cc2)coc2cc(O[C@@H]3O[C@H](CO)[C@@H](O)[C@H](O)[C@H]3O)ccc12 [Daidzin, daidzin] | 108.66 ± 2.16 | 108.11 ± 5.21 | – | – | – | – | 90 | 50 | 0.41 ± 0.02 | about 50% | > 90 | completely hydrolyzed to daidzein | 0.34 ± 0.03 | 0.8 ± 0.03 | 92.9 ± 1.77 | 99.2 ± 2.55 | 0.53 | – | – | –
3 | O=c1c(-c2ccc(O)cc2)coc2c([C@@H]3O[C@H](CO)[C@@H](O)[C@H](O)[C@H]3O)c(O)ccc12 [Puerarin, puerarin] | 105.00 ± 2.72 | 106.74 ± 4.20 | – | – | not being detectable until two hours | – | – | – | – | – | – | majority of puerarin remained unchanged | – | – | 88.9 ± 7.03 | 92.7 ± 8.09 | – | 0.043 ± 0.006 | 0.12 ± 0.02 | around 0.3%
